# From PMC8018653, “Gender-based differences in brain and plasma pharmacokinetics of letrozole in sprague-dawley rats: Application of physiologically-based pharmacokinetic modeling to gain quantitative insights” (PLoS ONE, 2021)
# Several values for one entry are separate records, joined by “and”; a condition that tells them apart may be missing. Equal entries are not always repeated. Entries after “also recorded” stand apart in the source; their conditions may differ. Where two headings read alike, the source gives them in different places.
# Columns and labels:
# [1] = parameters: method as in PMID 23748921; details: cited from earlier work
# [2] = Single dose brain ECF pharmacokinetics by intracerebral microdialysis; format: in vivo, Sprague-Dawley rats; details: single dose 4 mg/kg i.p.; for Tmax / AUC(0-t) / Kp uu: Sprague-Dawley, rat, ip; for Tmax / AUC(0-t): brain ECF (striatal microdialysate); for AUC(0-t): read-out: AUC 0–12, brain ECF; for Cmax, brain ECF / Kp uu: 4 mg/kg; for Kp uu: brain ECF / unbound plasma
# Method: Within 10 minutes of collection, plasma was separated by centrifugation of the blood samples at 4,000 rpm for 15 min. Microdialysis samples were collected simultaneously through the probes at the same time points from 0–12 hours.
# [3] = tested on: C6 orthotopic tumor; parameters: method as in PMID 25695958; details: C6 orthotopic glioma, rats, 4 mg/kg; cited from earlier work
# [4] = parameters: method as in PMID 23712697; details: in situ mouse brain perfusion; cited from earlier work
# [5] = PBPK input; ref Chemicalize database; cited from earlier work
# [6] = Whole body PBPK model with multi-compartment brain model (Simcyp Animal Simulator V17); parameters: species or system rat
# Excerpt: Simcyp Animal Simulator V17 (Certara Inc.) was employed for developing a bottom-up whole body PBPK model incorporating the specified multi-compartment brain model. Based on its anatomy and physiology, the whole brain is described by three compartments, viz. brain blood, brain mass and cerebrospinal fluid (CSF) as illustrated in Fig 1 (Simcyp® Rat Simulator). For model development, the physiological/ system-specific parameters were inferred from the existing rodent species within the animal simulator while, the key drug- specific parameters used are summarized in Table 1. Briefly, all the physiochemical and binding to blood components (plasma proteins and erythrocytes) parameters of letrozole were derived from expansive literature review. The first-order rate of absorption (Ka) and bioavailability following oral administration and systemic clearance values in male and female rats were obtained from a previously reported pharmacokinetic study and the first-order absorption model best fit the letrozole data. Full-PBPK model was employed for drug distribution while the Rodgers and Rowland method or “Method 2”, as defined in Simcyp v17, predicted the volume of distribution (Vss). For the multi-compartment brain model, the passive permeability-surface area product on the BBB (PSB) was determined using the Crone- Renkin Equation [25, 26]: PSB=−Fpfln(1−Kin/Fpf) (3) where, Fpf is the cerebral blood or perfusion flow rate and Kin is the brain uptake clearance. We used 0.036 mL/sec/g as the Fpf for letrozole, based on a previous study that obtained an average cerebral perfusion flow rate value for lipophilic compounds [25]. […] The passive permeability-surface area product on the blood-cerebrospinal fluid barrier (BCSFB), PSC, was assumed as half of the PSB [19, 27] while the passive permeability-surface area product on the cerebrospinal fluid-brain barrier (CSFBB), PSE, was set at 80 mL/min, assuming a high permeability of this barrier. Brain ECF concentrations were predicted using the in vivo unbound fraction in the brain (fu, brain) for letrozole multiplied by the simulated total brain concentrations. The fu, brain for letrozole was experimentally determined in both healthy and tumor-bearing female Sprague-Dawley rats (N = 4/ group). Following single dose intraperitoneal administration of 4 mg/kg letrozole, both brain ECF (representative of unbound drug concentration in the brain) and whole brain tissue samples were collected at the same corresponding timepoint around the Tmax (~6 hrs) of letrozole in brain ECF and the fu, brain was calculated based on the ratio of observed brain ECF to the whole brain tissue homogenate concentrations of letrozole (0.58 ± 0.19; mean ± SD).
# For evaluation of model predictions, the PBPK model developed was used to simulate extravascular administration of single/ multiple doses of letrozole (4 mg/kg) in rodents. To evaluate the predictive performance of the PBPK model, we compared the ratio of the predicted exposure change (Cmax and AUC ratios) against the observed data. A 1.25-fold under‐ or over‐prediction was considered good and within 1.5‐fold was deemed reasonable.
# [7] = parameters: method as in PMID 11501174; details: cited from earlier work; for CLpo: assuming 250 g average body weight
# [8] = cited from earlier work
# [9] = Steady state brain ECF pharmacokinetics by intracerebral microdialysis; details: for Kp uu at 264 h / Kp uu / Kp uu at 120 h: intraperitoneal; for Kp uu at 264 h: 11 days; for Kp uu: Kpuu, range over single dose and steady state (Cmax and AUC0-12); for Kp uu at 120 h: 5 days
# Method: The average in vitro relative recovery of letrozole was determined at a flow rate of 2.0 μ1/min at 35°C.
# Microdialysis probes were surgically implanted in jugular vein cannulated rats under anesthesia (ketamine/ xylazine 70/ 6 mg/kg i.p., Henry Schein, NY) one day prior to the experiment. Buprenorphine (Buprenex®, Henry Schein, NY) was administered for perioperative analgesia. The probe was inserted into the striatum with the following tip coordinates: A/P, 1.2 mm, L, 3.1 mm, and D/V −7.8 mm, according to the stereotaxic atlas of Paxinos and Watson [21]. The active portion of the membrane for the probes was 4.5 mm. Following implantation, the probes were connected to an infusion pump set to deliver modified Dulbecco’s phosphate buffered saline containing 1.2 mm CaCl2 and 5 mM glucose at a flow rate of 1 μl/min overnight.
# To establish the steady state, letrozole was administered via the intraperitoneal route at a dose of 4mg/kg o.d for 11 days (female rats) and 5 days (male rats) based on the previously published data and our preliminary experiments. On the day of the experiment (last day of dosing), blood and dialysis samples were collected concurrently as described above at the following time points- pre-dose, 1, 2, 4, 6, 8 and12 h post administration. An additional 24 hr time point was included in the plasma sample collection and all the samples were stored at -80°C until analyzed.
# Three sets of calibration plots were constructed for method validation.
# Non-compartmental analysis (NCA) was performed using Phoenix WinNonlin® software (version 6.2.1, Pharsight, St. Louis, MO, USA) and the PK parameters determined included peak concentration (Cmax), time to reach peak concentration (Tmax), area under the concentration-time curve between time zero to the last observed concentration time point (AUC0- t) and the elimination half-life (t1/2). Actual sampling times were employed for calculations except for the pre-dose times, which were kept as zero. Since the blood sampling period spanned less than 4.5 half-lives in female rats, plasma AUC0-∞ values could not be determined reliably. Consequently, we were constrained to reporting AUC0-t values for letrozole in this study which was calculated using the linear trapezoidal method. For consistency, only AUC0-t values were reported for male rats as well. Cmax and Tmax values were obtained directly from the concentration-time data. […] Brain ECF concentrations were time-averaged over the collection interval and were corrected for the observed relative recovery. The brain-to-plasma unbound partition coefficients (Kpuu) were calculated as a ratio of the Cmax or AUC0-12 of letrozole levels in the brain ECF to corresponding plasma Cmax and AUC values corrected for plasma protein binding.
# [10] = females, steady state, 4 mg/kg for 11 days
# [11] = males, steady state, 4 mg/kg for 5 days
structure (smiles),measurement,setting,value
N#Cc1ccc(C(c2ccc(C#N)cc2)n2cncn2)cc1 [letrozole],brain-to-plasma partition coefficients,"[1]; brain and brain tumor tissue, female Sprague-Dawley rats",0.5–1.0
same,intra-tumoral levels relative to the contralateral tumor-free region,[1],1.5 to 2 fold
same,Tmax,[2]; female rats,6.9 h
same,AUC(0-t),[2]; female rats,5750 ng·h/mL
same,Tmax,[2]; male rats,4.7 h
same,AUC(0-t),[2]; male rats,2410 ng·h/mL
same,"Cmax, brain ECF",[2]; female rats,660 ± 260 ng/ml and 660 (260)* ng/ml and 660 ng/ml
same,Kp uu,"[2]; female, female rats, read-out: Kpuu (AUC0-12 brain ECF / plasma unbound)",1.3
same,Kp uu,"[2]; female, female rats, read-out: Kpuu (Cmax brain ECF / plasma unbound)",1.4
same,"Cmax, brain ECF",[2]; male rats,260 ± 80 ng/ml and 260 (80) ng/ml and 260 ng/ml
same,Kp uu,"[2]; male, male rats, read-out: Kpuu (AUC0-12 brain ECF / plasma unbound)",0.6
same,Kp uu,"[2]; male, male rats, read-out: Kpuu (Cmax brain ECF / plasma unbound)",0.6
same,"brain ECF AUC0-12, female versus male difference",[2],2.4 fold
same,"brain ECF Cmax, female versus male difference",[2],2.5 fold
same,in vivo efficacy (tumor mass / volume),[3],marked reduction in the tumor mass; also recorded: marked reduction in tumor volume
same,Kin (brain uptake clearance),[4],0.422 ± 0.068 mL/min/g brain
same,Intrinsic solubility,[5],62 µg/mL
same,logP,[5],≈ 2.5
same,"AUC 0–12, brain ECF, predicted/observed ratio","[6]; females, single dose 4 mg/kg",0.81
same,"AUC 0–72, plasma, predicted/observed ratio","[6]; females, single dose 4 mg/kg",0.95
same,"Cmax, brain ECF, predicted/observed ratio","[6]; females, single dose 4 mg/kg",0.71
same,"Cmax, plasma, predicted/observed ratio","[6]; females, single dose 4 mg/kg",0.90
same,"Half-life t1/2, plasma, predicted/observed ratio","[6]; females, single dose 4 mg/kg",1.29
same,"AUC 0–12, brain ECF, predicted/observed ratio",[6]; [10],0.78
same,"AUC 0–24, plasma, predicted/observed ratio",[6]; [10],0.77
same,"Cmax, brain ECF, predicted/observed ratio",[6]; [10],0.66
same,"Cmax, plasma, predicted/observed ratio",[6]; [10],0.76
same,"AUC 0–12, brain ECF, predicted/observed ratio","[6]; males, single dose 4 mg/kg",1.29
same,"AUC 0–72, plasma, predicted/observed ratio","[6]; males, single dose 4 mg/kg",0.85
same,"Cmax, brain ECF, predicted/observed ratio","[6]; males, single dose 4 mg/kg",1.19
same,"Cmax, plasma, predicted/observed ratio","[6]; males, single dose 4 mg/kg",0.75
same,"Half-life t1/2, plasma, predicted/observed ratio","[6]; males, single dose 4 mg/kg",1.45
same,"AUC 0–12, brain ECF, predicted/observed ratio",[6]; [11],1.07
same,"AUC 0–24, plasma, predicted/observed ratio",[6]; [11],0.87
same,"Cmax, brain ECF, predicted/observed ratio",[6]; [11],0.96
same,"Cmax, plasma, predicted/observed ratio",[6]; [11],0.80
same,Fa,[7]; PBPK input,0.99
same,CLpo,[7]; females,0.21 mL/min
same,CL,[7]; females,0.85 mL/min/kg
same,Ka (first-order rate of absorption),[7]; females,0.49 h⁻¹
same,CLpo,[7]; males,0.77 mL/min
same,CL,[7]; males,3.08 mL/min/kg
same,Ka (first-order rate of absorption),[7]; males,0.29 h⁻¹
same,Blood-to-plasma partition ratio,"[8]; PBPK input, ref CDER NDA 20–726",0.8
same,plasma protein binding,[8],≈ 60%
same,accumulation at steady state (brain ECF Cmax and AUC0-12),[9]; female rats,3.5 to 4.0 fold
same,"predicted steady state average concentration, brain ECF",[9]; female rats,"~1,000 ng/ml"
same,"Rac brain (observed accumulation ratio, AUC0-12)","[9]; female rats, Day 11 / Day 1",4.2
same,"Rac brain (observed accumulation ratio, Cmax)","[9]; female rats, Day 11 / Day 1",3.5
same,Kp uu at 264 h,"[9]; female, Sprague-Dawley, rat, brain ECF / unbound plasma, 4 mg/kg, Kpuu (AUC0-12 brain ECF / plasma unbound), female rats, steady state",1.3
same,Kp uu at 264 h,"[9]; female, Sprague-Dawley, rat, brain ECF / unbound plasma, 4 mg/kg, Kpuu (Cmax brain ECF / plasma unbound), female rats, steady state",1.2
same,Kp uu,"[9]; female, Sprague-Dawley, rat, brain ECF / unbound plasma, 4 mg/kg, female rats",1.2 to 1.4
same,accumulation at steady state (brain ECF Cmax and AUC0-12),[9]; male rats,2.0 fold
same,"predicted steady state average concentration, brain ECF",[9]; male rats,~210 ng/mL
same,"Rac brain (observed accumulation ratio, AUC0-12)","[9]; male rats, Day 5 / Day 1",2.0
same,"Rac brain (observed accumulation ratio, Cmax)","[9]; male rats, Day 5 / Day 1",1.9
same,"Cmax, brain ECF","[9]; male rats, steady state, 4 mg/kg i.p. daily for 5 days, 4 mg/kg",490 ± 240 ng/ml and 490 (240) ng/ml and 490 ng/ml
same,Kp uu at 120 h,"[9]; male, Sprague-Dawley, rat, brain ECF (striatal microdialysate) / unbound plasma, 4 mg/kg, Kpuu (AUC0-12 brain ECF / plasma unbound), male rats, steady state",0.9
same,Tmax,"[9]; male, Sprague-Dawley, rat, brain ECF (striatal microdialysate), ip, 4 mg/kg",3.3 h
same,AUC(0-t),"[9]; male, Sprague-Dawley, rat, brain ECF (striatal microdialysate), ip, 4 mg/kg, AUC 0–12, brain ECF, male rats, steady state, 4 mg/kg i.p. daily for 5 days",4820 ng·h/mL
same,AUC(0-t),"[9]; male, Sprague-Dawley, rat, brain ECF (striatal microdialysate), ip, 4 mg/kg, brain ECF AUC 0–12, male rats, steady state, 4 mg/kg i.p. daily for 5 days",4800 ng·h/mL
same,Kp uu at 120 h,"[9]; male, Sprague-Dawley, rat, brain ECF / unbound plasma, 4 mg/kg, Kpuu (Cmax brain ECF / plasma unbound), male rats, steady state",0.9
same,Kp uu,"[9]; male, Sprague-Dawley, rat, brain ECF / unbound plasma, 4 mg/kg, male rats",0.6 to 0.9
same,"brain ECF exposure (Cmax, AUC0-12), higher in female rats",[9]; steady state,4.7 to 5 fold
